Measured values from patent publication US20070170056A1, “Microscale electrochemical cell and methods incorporating the cell” (priority 2006, published 2007).

Type: physicochemical
Conditions: vs Pt reference electrode; mobile phase 50 mM LiClO4 in 50:50 water/ACN; porous graphitic working electrode
Procedure: A standard phenol mixture (100 μM) was dissolved in (50:50) water/ACN to form a sample solution. Mobile phase A consisted of 50 mM LiClO4 in water, while mobile phase B consisted of 50 mM LiClO4 in ACN; a 50:50 mix was used. The sample solution was introduced into an Eksigent ExpressLC system through a micro-injector (40 nL) and separated on an HPLC column (Eksigent Technologies, 300 μm i.d., 15 cm; 3 μm C18 particles). The eluent from the column was run sequentially through a low-dispersion UV detector (Eksigent Technologies) and then through an electrochemical detection system according to an embodiment of the present invention.
The electrochemical detection system had two independent cells in series, connected by a fused silica capillary.

Compared with `Oc1ccc(Cl)cc1Cl` [2,4-dichlorophenol], `Oc1ccccc1Cl` [2-chlorophenol] is lower in E1/2: 305 mV for the first, 139 mV for the second.

Going from `Cc1cc(O)ccc1Cl` [4-chloro-3-methylphenol] to `Cc1ccc(O)c(C)c1` [2,4-dimethylphenol], the E1/2 falls from 314 mV to 304 mV.

With `Oc1ccccc1` [phenol] the E1/2 was 336 mV.
